From PubChem BioAssay AID330 (DTP/NCI, 2004)
“And” between values parts separate entries of the source, which are not always exact repeats. Equal values may be shown once. Toxic doses and inconclusive results are not listed. The calls were made as follows: active = survival T/C of 150% or more; inactive = T/C below 125% in these data.

Tested on: P388 leukemia ip, CD2F1 mice, survival T/C
Assay: NCI In Vivo Anticancer Drug Screen. Data for tumor model P388 Leukemia (intraperitoneal) in CD2F1 (CDF1) mice
Conditions: endpoint: median survival time, higher = longer survival
Outline: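 Mice carrying the transplanted tumor received test compound or vehicle. Survival was recorded in each group, and the value is the treated-group measurement divided by that of the vehicle-treated control group.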

[1] = dose: 50.0 mg/kg/injection, schedule: Q01DX005 (ip), vehicle: Klucel (hydroxypropylcellulose) (HPC)
[2] = dose: 100.0 mg/kg/injection, schedule: Q01DX005 (ip), vehicle: Klucel (hydroxypropylcellulose) (HPC)
[3] = dose: 200.0 mg/kg/injection, schedule: Q01DX005 (ip), vehicle: Klucel (hydroxypropylcellulose) (HPC)
[4] = dose: 100.0 mg/kg/injection, schedule: Q04DX003 (ip), vehicle: saline with Tween-80
[5] = dose: 200.0 mg/kg/injection, schedule: Q04DX003 (ip), vehicle: saline with Tween-80
[6] = dose: 100.0 mg/kg/injection, schedule: Q01DX009 (ip), vehicle: saline with Tween-80
[7] = dose: 200.0 mg/kg/injection, schedule: Q01DX009 (ip), vehicle: saline with Tween-80
[8] = dose: 50.0 mg/kg/injection, schedule: Q01DX005 (ip), vehicle: saline with Tween-80
[9] = dose: 100.0 mg/kg/injection, schedule: Q01DX005 (ip), vehicle: saline with Tween-80
[10] = dose: 200.0 mg/kg/injection, schedule: Q01DX005 (ip), vehicle: saline with Tween-80
[11] = dose: 12.5 mg/kg/injection, schedule: Q01DX005 (ip), vehicle: saline with Tween-80
[12] = dose: 25.0 mg/kg/injection, schedule: Q01DX005 (ip), vehicle: saline with Tween-80
[13] = dose: 60.0 mg/kg/injection, schedule: Q01DX005 (ip), vehicle: saline
[14] = dose: 120.0 mg/kg/injection, schedule: Q01DX005 (ip), vehicle: saline
[15] = dose: 50.0 mg/kg/injection, schedule: Q01DX009 (ip), vehicle: Klucel (hydroxypropylcellulose) (HPC)
[16] = dose: 100.0 mg/kg/injection, schedule: Q01DX009 (ip), vehicle: Klucel (hydroxypropylcellulose) (HPC)
[17] = dose: 200.0 mg/kg/injection, schedule: Q01DX009 (ip), vehicle: Klucel (hydroxypropylcellulose) (HPC)

Measured: T/C

Cc1c(N(C)c2ccccc2)c(=S)n(C)c(=S)n1C
inactive: [1] 89 % of control | [2] 100 % of control | [3] 90 % of control

Cc1c(NS(=O)(=O)c2ccccc2)c(C)c(NS(=O)(=O)c2ccccc2)c(C)c1NS(=O)(=O)c1ccccc1
inactive: dose: 50.0 mg/kg/injection, schedule: Q04DX003 (ip), vehicle: saline with Tween-80 100 % of control | [4] 90 % of control | [5] 90 % of control

COc1ccc(/C(C#N)=C/c2ccccc2)cc1
inactive: dose: 6.25 mg/kg/injection, schedule: Q01DX009 (ip), vehicle: suspension in saline 99 % of control and 103 % of control and 107 % of control | dose: 12.5 mg/kg/injection, schedule: Q01DX009 (ip), vehicle: suspension in saline 100 % of control and 108 % of control and 114 % of control | dose: 25.0 mg/kg/injection, schedule: Q01DX009 (ip), vehicle: saline with Tween-80 86 % of control | dose: 25.0 mg/kg/injection, schedule: Q01DX009 (ip), vehicle: suspension in saline 100 % of control and 92 % of control and 98 % of control | dose: 50.0 mg/kg/injection, schedule: Q01DX009 (ip), vehicle: saline with Tween-80 91 % of control | dose: 50.0 mg/kg/injection, schedule: Q01DX009 (ip), vehicle: suspension in saline 107 % of control and 124 % of control | [6] 91 % of control | [7] 101 % of control

COc1cc2c(cc1C(C)c1ccccc1)OCO2 (stereo not drawn)
inactive: [8] 96 % of control | [9] 96 % of control | [10] 111 % of control

CC(C)c1ccc(C[n+]2ccccc2/C=N/O)cc1
inactive: [11] 100 % of control | [12] 95 % of control | [8] 103 % of control

Cc1ccc(S(=O)(=O)C(C#N)(Cc2c[nH]c3ccccc23)Cc2c[nH]c3ccccc23)cc1
inactive: [1] 107 % of control | [2] 101 % of control | [3] 98 % of control

[B-][N+]12CC[N+]([B-])(CC1)CC2
inactive: dose: 0.06 mg/kg/injection, schedule: Q04DX003 (ip), vehicle: other 100 % of control | dose: 0.13 mg/kg/injection, schedule: Q04DX003 (ip), vehicle: other 100 % of control | dose: 0.25 mg/kg/injection, schedule: Q04DX003 (ip), vehicle: other 100 % of control | dose: 15.6 micrograms/kg/injection, schedule: Q01DX009 (ip), vehicle: other 100 % of control | dose: 31.3 micrograms/kg/injection, schedule: Q01DX009 (ip), vehicle: other 100 % of control | dose: 62.5 micrograms/kg/injection, schedule: Q01DX009 (ip), vehicle: other 100 % of control | dose: 62.5 micrograms/kg/injection, schedule: Q01DX009 (ip), vehicle: saline 87 % of control | dose: 125.0 micrograms/kg/injection, schedule: Q01DX009 (ip), vehicle: saline 104 % of control

CC(C)c1nc(-c2ccccc2)c(-c2ccccc2)[nH]1
inactive: [6] 90 % of control | [7] 90 % of control | dose: 400.0 mg/kg/injection, schedule: Q01DX009 (ip), vehicle: saline with Tween-80 95 % of control

O=C(O)C1C2OC(C(Cl)C2Cl)C1C(=O)O (stereo not drawn)
inactive: dose: 15.0 mg/kg/injection, schedule: Q01DX005 (ip), vehicle: saline 97 % of control | dose: 30.0 mg/kg/injection, schedule: Q01DX005 (ip), vehicle: saline 94 % of control | [13] 95 % of control | [14] 87 % of control

CC(NCCc1ccccc1)C1CCOC1=O (stereo not drawn)
inactive: dose: 6.25 mg/kg/injection, schedule: Q01DX009 (ip), vehicle: saline 98 % of control | dose: 12.5 mg/kg/injection, schedule: Q01DX009 (ip), vehicle: saline 97 % of control and 102 % of control | dose: 25.0 mg/kg/injection, schedule: Q01DX009 (ip), vehicle: saline 103 % of control and 109 % of control | dose: 50.0 mg/kg/injection, schedule: Q01DX009 (ip), vehicle: saline 100 % of control and 97 % of control

N#Cc1nc(CC(=O)c2ccc(Cl)cc2Cl)c(CC(=O)c2ccc(Cl)cc2Cl)nc1C#N
inactive: [13] 112 % of control | [14] 106 % of control

Cn1cc/c(=N\N=c2/ccn(C)c3ccccc23)c2ccccc21
inactive: dose: 25.0 mg/kg/injection, schedule: Q04DX002 (ip), vehicle: saline 101 % of control | dose: 50.0 mg/kg/injection, schedule: Q04DX002 (ip), vehicle: saline 104 % of control | dose: 100.0 mg/kg/injection, schedule: Q04DX002 (ip), vehicle: saline 99 % of control and 103 % of control

C[C@H]1O[C@H](C)[C@H](O)C2=C1C(=O)c1ccccc1C2=O
inactive: dose: 12.5 mg/kg/injection, schedule: Q04DX002 (ip), vehicle: saline with Tween-80 100 % of control and 95 % of control | dose: 25.0 mg/kg/injection, schedule: Q04DX002 (ip), vehicle: saline with Tween-80 99 % of control and 100 % of control and 96 % of control | dose: 50.0 mg/kg/injection, schedule: Q04DX002 (ip), vehicle: saline with Tween-80 99 % of control and 110 % of control and 94 % of control

COc1ccccc1NC(=O)C1=C(C)NC(C)=C(C(=O)Nc2ccccc2OC)C1c1ccc(Cl)cc1Cl
inactive: [8] 103 % of control | [9] 103 % of control | [10] 91 % of control

CCOc1c(N=Nc2ccc([N+](=O)[O-])cc2)c(C)nn1C(N)=S
inactive: dose: 60.0 mg/kg/injection, schedule: Q01DX005 (ip), vehicle: Klucel (hydroxypropylcellulose) (HPC) 93 % of control | dose: 120.0 mg/kg/injection, schedule: Q01DX005 (ip), vehicle: Klucel (hydroxypropylcellulose) (HPC) 95 % of control | dose: 240.0 mg/kg/injection, schedule: Q01DX005 (ip), vehicle: Klucel (hydroxypropylcellulose) (HPC) 98 % of control

COc1ccccc1C1c2cc3c(cc2OC(C)(N2CCCC2)C1C)OCO3 (stereo not drawn)
inactive: dose: 100.0 mg/kg/injection, schedule: Q04DX002 (ip), vehicle: saline with Tween-80 96 % of control | dose: 200.0 mg/kg/injection, schedule: Q04DX002 (ip), vehicle: saline with Tween-80 102 % of control | dose: 400.0 mg/kg/injection, schedule: Q04DX002 (ip), vehicle: saline with Tween-80 99 % of control

CCNC(=O)C#CC(=O)NCC
inactive: [15] 92 % of control | [16] 92 % of control | [17] 95 % of control

O=Cc1cc(CCl)ccc1O
inactive: [11] 103 % of control | [12] 110 % of control | [8] 113 % of control | [9] 98 % of control

O=C1SC/C(=N\N=c2/scc(-c3ccc(Br)cc3)n2-c2ccc(Br)cc2)N1Cc1ccccc1
inactive: dose: 100.0 mg/kg/injection, schedule: Q04DX002 (ip), vehicle: Klucel (hydroxypropylcellulose) (HPC) 91 % of control | dose: 200.0 mg/kg/injection, schedule: Q04DX002 (ip), vehicle: Klucel (hydroxypropylcellulose) (HPC) 92 % of control | dose: 400.0 mg/kg/injection, schedule: Q04DX002 (ip), vehicle: Klucel (hydroxypropylcellulose) (HPC) 90 % of control

COc1cc(NCCN(CC(C)C)C2CCCC2)c2ncccc2c1
inactive: dose: 12.5 mg/kg/injection, schedule: Q01DX005 (ip), vehicle: saline 100 % of control and 106 % of control | dose: 25.0 mg/kg/injection, schedule: Q01DX005 (ip), vehicle: saline 100 % of control and 114 % of control | dose: 50.0 mg/kg/injection, schedule: Q01DX005 (ip), vehicle: saline 101 % of control and 103 % of control and 106 % of control | dose: 100.0 mg/kg/injection, schedule: Q01DX005 (ip), vehicle: saline 121 % of control and 90 % of control and 96 % of control

COCCNC(=S)SCCN(C(C)C)C(C)C
inactive: [8] 104 % of control | [9] 106 % of control

C=CCn1c(=S)[nH]c2ccccc2c1=O
inactive: [4] 90 % of control | [5] 90 % of control | dose: 400.0 mg/kg/injection, schedule: Q04DX003 (ip), vehicle: saline with Tween-80 90 % of control

C=C(Br)C(=NC(C)(C)C)Nc1ccc(Cl)cc1
inactive: dose: 6.25 mg/kg/injection, schedule: Q01DX005 (ip), vehicle: Klucel (hydroxypropylcellulose) (HPC) 107 % of control | dose: 12.5 mg/kg/injection, schedule: Q01DX005 (ip), vehicle: Klucel (hydroxypropylcellulose) (HPC) 114 % of control | [1] 98 % of control | [2] 103 % of control | [3] 102 % of control

c1ccc2c(c1)Nc1ccccc1O2
inactive: dose: 25.0 mg/kg/injection, schedule: Q01DX005 (ip), vehicle: Klucel (hydroxypropylcellulose) (HPC) 98 % of control | [1] 91 % of control | [2] 100 % of control | [3] 99 % of control

Cc1ncc([N+](=O)[O-])n1CCOC(=O)c1ccc(Cl)cc1
inactive: [15] 102 % of control | [16] 100 % of control | [17] 98 % of control

CC(C)N1CC(=O)N2CSCC2C1=O (stereo not drawn)
inactive: [13] 105 % of control | [14] 105 % of control | dose: 240.0 mg/kg/injection, schedule: Q01DX005 (ip), vehicle: saline 105 % of control
